Data set [1] relates to VSMC. The data set is described as follows: Inhibition of IFN-gamma/IL6-induced cell migration in mouse VSMC cells incubated for 45 hrs by scratch wound healing assay. It is filed as functional, cell-based.
In data set [2] the target is Tyrosine-protein kinase JAK2 (Mus musculus) (UniProt Q62120). The data set is described as follows: Inhibition of JAK2 in mouse VSMC cells assessed as reduction in IFNgamma/IL6 induced STAT1 phosphorylation at 5 uM treated for 90 mins prior to cytokine stimulation and measured after 1 hr by DAPI staining based immunofluorescence confocal microscopy. Format: cell-based. The conditions noted are these: time 150.0 min.
Tyrosine-protein kinase JAK2 (Mus musculus), sequence (Q62120 whole entry): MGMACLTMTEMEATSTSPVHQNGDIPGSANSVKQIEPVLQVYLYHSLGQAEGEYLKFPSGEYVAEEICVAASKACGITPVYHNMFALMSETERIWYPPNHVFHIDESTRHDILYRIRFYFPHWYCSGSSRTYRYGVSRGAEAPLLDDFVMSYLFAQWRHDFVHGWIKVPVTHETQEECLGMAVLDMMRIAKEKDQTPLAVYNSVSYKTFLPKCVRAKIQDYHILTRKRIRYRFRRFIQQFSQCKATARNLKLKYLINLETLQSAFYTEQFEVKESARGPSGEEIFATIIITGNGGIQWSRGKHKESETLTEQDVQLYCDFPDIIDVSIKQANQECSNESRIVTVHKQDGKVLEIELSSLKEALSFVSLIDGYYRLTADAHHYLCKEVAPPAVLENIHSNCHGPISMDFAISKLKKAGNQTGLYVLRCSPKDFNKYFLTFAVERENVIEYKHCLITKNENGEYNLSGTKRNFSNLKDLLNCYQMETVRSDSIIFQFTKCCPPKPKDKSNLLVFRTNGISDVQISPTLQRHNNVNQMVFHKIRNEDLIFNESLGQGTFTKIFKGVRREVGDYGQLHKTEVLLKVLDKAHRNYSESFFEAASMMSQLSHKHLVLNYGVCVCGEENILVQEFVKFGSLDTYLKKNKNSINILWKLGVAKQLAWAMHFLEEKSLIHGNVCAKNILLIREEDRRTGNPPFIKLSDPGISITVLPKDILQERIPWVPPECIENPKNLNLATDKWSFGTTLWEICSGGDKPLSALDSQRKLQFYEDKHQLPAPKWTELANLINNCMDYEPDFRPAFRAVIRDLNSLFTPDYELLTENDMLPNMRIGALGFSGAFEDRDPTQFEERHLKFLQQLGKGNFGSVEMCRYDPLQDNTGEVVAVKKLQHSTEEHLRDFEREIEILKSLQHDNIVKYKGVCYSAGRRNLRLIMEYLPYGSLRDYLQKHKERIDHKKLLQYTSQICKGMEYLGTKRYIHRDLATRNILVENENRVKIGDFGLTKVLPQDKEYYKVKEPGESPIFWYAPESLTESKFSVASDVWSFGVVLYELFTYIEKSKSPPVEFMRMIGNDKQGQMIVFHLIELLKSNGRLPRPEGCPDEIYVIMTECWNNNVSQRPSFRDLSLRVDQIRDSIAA

Data set [3] shares this target. The data set is described as follows: Inhibition of JAK2 in mouse VSMC cells assessed as reduction in IFNgamma/IL6- induced STAT1 phosphorylation by Western blot analysis. Format: cell-based. A general note: A western blot detects proteins with antibodies after separation by electrophoresis.
For data set [4] the target is unchanged. Put plainly: Inhibition of JAK2 in mouse VSMC cells assessed as reduction in IFNgamma/IL6-induced JAK2 phosphorylation by Western blot analysis. It is filed as cell-based.
For data set [5] the target is unchanged. The data set is described as follows: Inhibition of JAK2 in mouse VSMC cells assessed as reduction in IFNgamma/IL6-induced Ccl2 mRNA expression by quantitative real time PCR analysis. Format: cell-based. A general note: In qPCR the cycle at which signal appears reflects the starting amount.
Data set [6] has the same target. The data set is described as follows: Inhibition of JAK2 in mouse VSMC cells assessed as reduction in IFNgamma/IL6-induced Ccl5 mRNA expression by quantitative real time PCR analysis. Format: cell-based.
Data set [7] has the same target. Put plainly: Inhibition of JAK2 in mouse VSMC cells assessed as reduction in IFNgamma/IL6-induced Cxcl10 mRNA expression by quantitative real time PCR analysis. It is filed as cell-based.
Data set [8] deals with VSMC. The data set is described as follows: Antioxidant activity in mouse VSMC cells assessed as reduction in IFNgamma/IL6-induced intracellular superoxide generation by DHE staining based fluorescence confocal microscopy analysis. Format: functional, cell-based.
Another data set concerns RAW264.7. Put plainly: Antioxidant activity in mouse RAW264.7 cells assessed as reduction in IFNgamma/IL6-induced intracellular superoxide generation by DHE staining based fluorescence confocal microscopy analysis. It is filed as functional, cell-based.
The test system of data set [9] is VSMC. Put plainly: Antioxidant activity in IFNgamma/IL6-stimulated mouse VSMC cells assessed as reduction in Nox1 mRNA expression by quantitative real time PCR analysis. Format: functional, cell-based.
Data set [10] concerns VSMC. The data set is described as follows: Antioxidant activity in IFNgamma/IL6-stimulated mouse VSMC cells assessed as reduction in Nox4 mRNA expression by quantitative real time PCR analysis. Format: functional, cell-based.
The test system of data set [11] is VSMC. Put plainly: Antioxidant activity in IFNgamma/IL6-stimulated mouse VSMC cells assessed as upregulation of Sod1 mRNA expression by quantitative real time PCR analysis. Format: functional, cell-based.
The test system of data set [12] is VSMC. Put plainly: Antioxidant activity in IFNgamma/IL6-stimulated mouse VSMC cells assessed as upregulation of catalase mRNA expression by quantitative real time PCR analysis. It is filed as functional, cell-based.
Data set [13] has as its target Tyrosine-protein kinase JAK2 (Homo sapiens, UniProt O60674). Put plainly: Binding affinity to N-terminal His-tagged human JAK2 catalytic domain (826 to 1132 residues) expressed in baculovirus-infected Sf21 cells by Microscale thermophoresis analysis.
The target of data set [14] is Tyrosine-protein kinase JAK2 (Mus musculus) (UniProt Q62120). The data set is described as follows: Inhibition of JAK2 in mouse VSMC cells assessed as reduction in IFN-gamma/IL6 induced STAT1 nuclear translocation at 5 uM treated for 90 mins prior to cytokine stimulation and measured after 1 hr by DAPI staining based immunofluorescence confocal microscopy. It is filed as cell-based. The conditions noted are these: time 150.0 min.

The target is the same in data set [15]. Put plainly: Inhibition of JAK2 in mouse RAW264.7 cells assessed as reduction in IFNgamma/IL6-induced Ccl2 mRNA expression by quantitative real time PCR analysis. Format: cell-based.
The target is the same in data set [16]. Put plainly: Inhibition of JAK2 in mouse RAW264.7 cells assessed as reduction in IFNgamma/IL6-induced Ccl5 mRNA expression by quantitative real time PCR analysis. Format: cell-based.
Data set [17] has the same target. The data set is described as follows: Inhibition of JAK2 in mouse RAW264.7 cells assessed as reduction in IFNgamma/IL6-induced Cxcl10 mRNA expression by quantitative real time PCR analysis. Format: cell-based.
A short description of data set [18]: Stability of the compound in 25% fetal calf serum assessed as residual parent compound level at 80 uM measured after 42 hrs by RP-HPLC analysis. It is filed as ADME, cell-free, Bos taurus. The conditions noted are these: cattle, read-out: Stabilty.
Data set [19] can be described thus: Cytotoxicity against mouse VSMC cells assessed as reduction in cell proliferation at 25 uM incubated for 24 hrs in DMEM medium containing 10% FBS by MTT assay. It is filed as cell-based. For orientation: Tetrazolium dyes change colour on reduction, which living cells bring about.
A short description of data set [20]: Stability of the compound in 25% fetal calf serum assessed as enzyme-mediated compound degradation at 80 uM measured after 24 hrs by RP-HPLC analysis. As to conditions: cattle, read-out: Drug degradation. It is filed as ADME, cell-free, Bos taurus.
Data set [21] in a line: Cytotoxicity against mouse VSMC cells assessed as reduction in cell viability at 25 uM incubated for 6 to 24 hrs in DMEM medium containing 0.5% FBS by MTT assay. The conditions noted are these: time 6-24 hrs. It is filed as cell-based.

Active and inactive are the calls of the source. The rule behind the calls is not given here. Peptide text beside a SMILES is read from it. * marks the point of attachment. Acm = CC(=O)NC*

Tyrosine-protein kinase JAK2, sequence (O60674 whole entry, the tested form may be a part): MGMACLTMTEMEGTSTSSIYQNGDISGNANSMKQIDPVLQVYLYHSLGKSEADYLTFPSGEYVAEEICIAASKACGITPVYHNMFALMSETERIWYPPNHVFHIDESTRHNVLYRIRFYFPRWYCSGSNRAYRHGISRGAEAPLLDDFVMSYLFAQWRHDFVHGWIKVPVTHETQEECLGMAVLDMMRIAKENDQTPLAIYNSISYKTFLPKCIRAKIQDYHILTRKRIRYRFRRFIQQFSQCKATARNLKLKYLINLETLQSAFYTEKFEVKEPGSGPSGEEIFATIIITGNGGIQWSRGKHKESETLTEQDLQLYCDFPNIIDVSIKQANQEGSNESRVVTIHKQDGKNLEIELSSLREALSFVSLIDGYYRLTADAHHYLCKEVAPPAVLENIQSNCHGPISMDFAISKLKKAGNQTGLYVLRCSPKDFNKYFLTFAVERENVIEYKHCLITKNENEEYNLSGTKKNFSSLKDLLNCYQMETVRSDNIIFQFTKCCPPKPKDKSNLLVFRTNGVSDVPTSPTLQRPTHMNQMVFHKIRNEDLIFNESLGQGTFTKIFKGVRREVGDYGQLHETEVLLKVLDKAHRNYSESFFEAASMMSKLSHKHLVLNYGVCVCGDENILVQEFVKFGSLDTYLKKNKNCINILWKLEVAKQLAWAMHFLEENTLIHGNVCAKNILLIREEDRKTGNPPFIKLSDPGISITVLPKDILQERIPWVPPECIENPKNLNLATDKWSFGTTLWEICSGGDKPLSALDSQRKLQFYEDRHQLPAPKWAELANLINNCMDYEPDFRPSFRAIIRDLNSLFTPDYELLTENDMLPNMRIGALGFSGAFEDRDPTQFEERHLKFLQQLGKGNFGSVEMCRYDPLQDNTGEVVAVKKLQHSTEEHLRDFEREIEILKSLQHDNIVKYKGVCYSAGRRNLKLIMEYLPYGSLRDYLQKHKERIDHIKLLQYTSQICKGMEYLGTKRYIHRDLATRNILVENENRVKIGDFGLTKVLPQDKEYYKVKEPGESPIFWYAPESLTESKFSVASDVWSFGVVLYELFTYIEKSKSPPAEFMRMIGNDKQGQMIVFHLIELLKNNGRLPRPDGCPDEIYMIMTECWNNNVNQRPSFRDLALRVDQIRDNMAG

Take `CC(=O)NCSC[C@@H]1NC(=O)[C@H]([C@@H](C)O)NC(=O)[C@@H](NC(C)=O)CC(=O)NCCCC[C@@H](C(=O)NC(Cc2cnc[nH]2)C(N)=O)NC(=O)[C@@H](CCCNC(=N)N)NC(=O)[C@H](Cc2ccccc2)NC(=O)[C@H]([C@@H](C)O)NC(=O)[C@H](CCC(N)=O)NC(=O)[C@@H](CCCNC(=N)N)NC1=O` (stereo not given in full): the inhibition result (in the data set on VSMC [1]; in [3]; in [4]; in [5]; in data set [6]; in data set [7]) was “Active” in each case. The inhibition entry in data set [15], in [16] and in data set [17] was “Active” each time. In addition, the inhibition in data set [2] and in data set [14] was 65% in each case. Besides, the outcome in the data set on VSMC [8], with RAW264.7, in the data set on VSMC [9], in the data set with VSMC [10], with VSMC [11] and in the data set on VSMC [12] was Active. For the same compound, the affinity in [13], expressed as Kd, was 44 µM.

For the compound `CC(=O)NCSC[C@@H]1NC(=O)[C@H]([C@@H](C)O)NC(=O)[C@@H](NC(C)=O)CC(=O)NCCCC[C@@H](C(=O)N[C@@H](Cc2cnc[nH]2)C(N)=O)NC(=O)[C@H](CCCNC(=N)N)NC(=O)[C@H](Cc2cccc3ccccc23)NC(=O)[C@H]([C@@H](C)O)NC(=O)[C@H](CCC(N)=O)NC(=O)[C@H](CCCNC(=N)N)NC1=O`, the remaining at 42 h, 80 µM in [18] came to 40%. Further, the Activity result in [19] and in data set [21] was “Non-Toxic” each time. Moreover, the metabolised at 24 h, 80 µM in [20] was found to be 20%.

Turning to `CC(=O)NCSC[C@@H]1NC(=O)[C@H]([C@@H](C)O)NC(=O)[C@H](NC(C)=O)CC(=O)NCCCC[C@@H](C(=O)NC(Cc2cnc[nH]2)C(N)=O)NC(=O)[C@@H](CCCNC(=N)N)NC(=O)[C@H](Cc2cccc3ccccc23)NC(=O)[C@H]([C@@H](C)O)NC(=O)[C@H](CCC(N)=O)NC(=O)[C@@H](CCCNC(=N)N)NC1=O` (stereo not given in full), the inhibition entry (with VSMC [1]; in [3]; in data set [4]; in data set [5]; in data set [6]; in data set [7]) was “Active” each time. The inhibition entry in data set [15], in [16] and in data set [17] was “Active” in each case. The inhibition in data set [2] and in [14] was 65% throughout. For the same compound, the outcome in the data set with VSMC [8], in the data set with RAW264.7, in the data set with VSMC [9], in the data set on VSMC [10], in the data set with VSMC [11] and in the data set on VSMC [12] was Active. In addition, the Kd (commonly the concentration at which binding is half-saturated) in data set [13] was 35 µM.

In the case of `CC(=O)NCSC[C@H](NC(=O)[C@@H](NC(=O)[C@H](CC(=O)O)NC(C)=O)[C@@H](C)O)C(=O)N[C@@H](CCCNC(=N)N)C(=O)N[C@@H](CCC(N)=O)C(=O)N[C@H](C(=O)N[C@@H](Cc1ccccc1)C(=O)N[C@@H](CCCNC(=N)N)C(=O)N[C@@H](CO)C(=O)N[C@@H](Cc1cnc[nH]1)C(=O)O)[C@@H](C)O` (Ac-DTC(Acm)RQTFRSH-OH), the Activity entry in data set [19] and in data set [21] was “Non-Toxic” throughout. The inhibition entry in data set [3], in data set [4], in data set [5], in data set [6], in data set [7] and in data set [15] was “Active” throughout. The inhibition result in data set [16] and in data set [17] was “Active” throughout. Also, the outcome in the data set on VSMC [8], in the data set with RAW264.7, in the data set on VSMC [9], with VSMC [10], in the data set with VSMC [11] and in the data set on VSMC [12] was Active. Besides, in data set [20], the metabolised at 24 h, 80 µM was found to be 50%.

As for `CC(=O)NCSC[C@@H]1NC(=O)[C@H]([C@@H](C)O)NC(=O)[C@@H](NC(C)=O)CC(=O)NCCCC[C@@H](C(=O)N[C@@H](Cc2cnc[nH]2)C(N)=O)NC(=O)[C@H](CCCNC(=N)N)NC(=O)[C@H](Cc2ccccc2)NC(=O)[C@H]([C@@H](C)O)NC(=O)[C@H](CCC(N)=O)NC(=O)[C@H](CCCNC(=N)N)NC1=O`, the Activity entry in [19] and in [21] was “Non-Toxic” each time. The metabolised at 24 h, 80 µM in data set [20] was found to be 40%.
